Source: ChEMBL document CHEMBL1201862, “PubChem BioAssay data set” (2004)
Calls of active or inactive are those of the source.

Tests used:
[1] = molecular target: T1, High affinity choline transporter 1 (Homo sapiens, UniProt Q9GZV3); assay: CHT inhibitors, dose response, cell-based, 5-point CRC, membrane potential dye (AID 504840); assay type: functional
T1 sequence (Q9GZV3 whole entry): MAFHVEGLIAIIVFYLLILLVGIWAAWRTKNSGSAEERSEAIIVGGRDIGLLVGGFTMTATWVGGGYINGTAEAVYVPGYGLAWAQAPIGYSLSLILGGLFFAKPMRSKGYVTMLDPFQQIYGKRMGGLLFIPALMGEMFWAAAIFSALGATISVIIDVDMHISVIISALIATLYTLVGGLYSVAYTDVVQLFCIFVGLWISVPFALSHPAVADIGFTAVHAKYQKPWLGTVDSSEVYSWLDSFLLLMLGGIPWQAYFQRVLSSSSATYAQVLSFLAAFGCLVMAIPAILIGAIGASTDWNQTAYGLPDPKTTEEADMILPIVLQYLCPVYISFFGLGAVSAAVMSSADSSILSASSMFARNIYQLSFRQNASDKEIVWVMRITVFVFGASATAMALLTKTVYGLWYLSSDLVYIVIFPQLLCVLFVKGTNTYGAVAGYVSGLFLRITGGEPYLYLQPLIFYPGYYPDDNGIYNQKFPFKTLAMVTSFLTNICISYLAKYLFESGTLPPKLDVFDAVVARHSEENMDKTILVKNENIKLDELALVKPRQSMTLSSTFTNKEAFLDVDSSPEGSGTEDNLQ

[2] = molecular target: T1, High affinity choline transporter 1; assay: CHT inhibitors, dose response, cell-based, 10-point CRC, membrane potential dye (AID 588401); assay type: functional;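 also: membrane potential dye fluorescence of choline-evoked depolarization via CHT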
[3] = molecular target: Potassium voltage-gated channel subfamily KQT member 2 (Rattus norvegicus, UniProt O88943); assay: KCNQ2 potassium channel inhibitors, dose response, cell-based, automated electrophysiology, set II, rat KCNQ2 (AID 588637); assay type: functional
Chain of Potassium voltage-gated channel subfamily KQT member 2 (O88943 whole entry): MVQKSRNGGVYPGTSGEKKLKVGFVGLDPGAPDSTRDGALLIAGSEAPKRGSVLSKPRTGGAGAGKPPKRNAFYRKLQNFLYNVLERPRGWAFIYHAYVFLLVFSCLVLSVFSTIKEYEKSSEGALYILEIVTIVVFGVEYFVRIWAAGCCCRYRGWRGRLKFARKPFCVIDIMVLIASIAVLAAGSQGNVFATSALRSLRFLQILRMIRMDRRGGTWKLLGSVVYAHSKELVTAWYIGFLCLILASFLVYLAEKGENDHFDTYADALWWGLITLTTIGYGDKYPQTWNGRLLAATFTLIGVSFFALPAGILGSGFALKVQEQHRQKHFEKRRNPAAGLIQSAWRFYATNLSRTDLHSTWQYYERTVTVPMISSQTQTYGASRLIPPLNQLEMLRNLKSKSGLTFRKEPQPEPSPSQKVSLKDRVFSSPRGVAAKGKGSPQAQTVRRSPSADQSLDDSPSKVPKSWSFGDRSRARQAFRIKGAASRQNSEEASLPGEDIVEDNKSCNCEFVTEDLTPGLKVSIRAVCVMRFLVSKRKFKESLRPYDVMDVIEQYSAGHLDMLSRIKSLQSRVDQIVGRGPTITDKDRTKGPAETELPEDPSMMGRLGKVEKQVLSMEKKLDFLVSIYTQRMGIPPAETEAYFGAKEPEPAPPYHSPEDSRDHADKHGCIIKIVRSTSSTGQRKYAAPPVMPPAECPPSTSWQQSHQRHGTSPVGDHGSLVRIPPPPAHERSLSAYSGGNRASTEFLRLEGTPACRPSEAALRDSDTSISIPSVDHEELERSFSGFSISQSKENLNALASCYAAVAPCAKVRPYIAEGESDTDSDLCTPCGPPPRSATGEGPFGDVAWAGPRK

[4] = molecular target: Ras and Rab interactor 1/Tyrosine-protein kinase ABL1 (Homo sapiens, UniProt P00519+Q13671); assay type: functional;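 also: biochemical TR-FRET dose-response test measuring inhibition of binding between Rin1 and Abl proteins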
Chain of Ras and Rab interactor 1/Tyrosine-protein kinase ABL1 (P00519 whole entry): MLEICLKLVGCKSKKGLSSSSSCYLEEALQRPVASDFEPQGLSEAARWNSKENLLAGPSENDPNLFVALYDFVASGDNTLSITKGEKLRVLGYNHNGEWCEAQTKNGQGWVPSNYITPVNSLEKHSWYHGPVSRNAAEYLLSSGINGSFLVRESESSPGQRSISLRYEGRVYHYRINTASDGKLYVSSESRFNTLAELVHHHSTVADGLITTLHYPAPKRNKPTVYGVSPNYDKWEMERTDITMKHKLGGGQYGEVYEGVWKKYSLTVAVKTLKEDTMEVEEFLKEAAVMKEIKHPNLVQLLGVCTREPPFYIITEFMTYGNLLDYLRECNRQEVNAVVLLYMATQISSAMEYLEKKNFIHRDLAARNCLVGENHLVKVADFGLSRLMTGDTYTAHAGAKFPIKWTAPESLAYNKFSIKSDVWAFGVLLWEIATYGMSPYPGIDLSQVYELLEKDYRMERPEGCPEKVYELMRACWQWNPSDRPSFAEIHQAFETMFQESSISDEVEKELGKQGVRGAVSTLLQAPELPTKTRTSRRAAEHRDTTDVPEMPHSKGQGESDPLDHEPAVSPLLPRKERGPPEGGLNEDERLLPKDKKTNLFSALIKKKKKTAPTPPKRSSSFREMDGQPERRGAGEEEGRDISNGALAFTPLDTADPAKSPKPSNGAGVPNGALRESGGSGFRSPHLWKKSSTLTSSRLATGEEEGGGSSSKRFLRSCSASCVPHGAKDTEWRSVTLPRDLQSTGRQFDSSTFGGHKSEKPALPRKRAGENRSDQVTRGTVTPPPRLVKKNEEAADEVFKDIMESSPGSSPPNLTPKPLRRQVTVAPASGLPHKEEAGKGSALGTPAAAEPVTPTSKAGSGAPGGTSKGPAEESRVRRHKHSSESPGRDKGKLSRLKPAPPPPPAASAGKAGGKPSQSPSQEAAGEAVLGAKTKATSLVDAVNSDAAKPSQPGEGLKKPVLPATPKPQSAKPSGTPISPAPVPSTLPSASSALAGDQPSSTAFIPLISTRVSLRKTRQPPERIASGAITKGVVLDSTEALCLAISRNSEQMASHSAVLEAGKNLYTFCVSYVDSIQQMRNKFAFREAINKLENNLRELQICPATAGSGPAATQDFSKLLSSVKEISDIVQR
Chain of Ras and Rab interactor 1/Tyrosine-protein kinase ABL1 (Q13671 whole entry): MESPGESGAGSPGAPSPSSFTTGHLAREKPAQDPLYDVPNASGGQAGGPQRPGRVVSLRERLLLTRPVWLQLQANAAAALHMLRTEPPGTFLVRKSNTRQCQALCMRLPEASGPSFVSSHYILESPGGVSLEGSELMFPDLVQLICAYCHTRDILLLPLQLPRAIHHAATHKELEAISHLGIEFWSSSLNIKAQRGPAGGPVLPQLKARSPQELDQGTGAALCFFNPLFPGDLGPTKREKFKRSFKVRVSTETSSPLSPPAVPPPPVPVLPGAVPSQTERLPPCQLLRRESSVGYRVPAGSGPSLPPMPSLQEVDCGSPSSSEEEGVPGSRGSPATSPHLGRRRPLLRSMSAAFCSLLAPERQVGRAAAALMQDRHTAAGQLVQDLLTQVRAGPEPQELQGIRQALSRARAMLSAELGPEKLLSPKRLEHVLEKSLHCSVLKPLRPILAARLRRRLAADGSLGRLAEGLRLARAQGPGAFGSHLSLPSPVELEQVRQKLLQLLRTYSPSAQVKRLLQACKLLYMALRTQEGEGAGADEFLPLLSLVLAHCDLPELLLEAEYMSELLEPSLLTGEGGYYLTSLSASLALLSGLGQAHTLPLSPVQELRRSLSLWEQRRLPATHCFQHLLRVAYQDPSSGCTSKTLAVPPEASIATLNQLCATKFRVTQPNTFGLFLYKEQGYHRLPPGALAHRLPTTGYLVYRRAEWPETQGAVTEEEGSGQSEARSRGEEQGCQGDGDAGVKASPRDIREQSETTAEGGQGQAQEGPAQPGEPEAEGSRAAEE

[5] = Shn3 3'UTR reporter inhibitors, dose response, cell-based, Clone20 osteoblasts, firefly luciferase, cherry-picked (AID 624132); assay type: functional;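 also: firefly luciferase luminescence from reporter carrying the Shn3 3'UTR in osteoblasts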
[6] = HepG2 cell cytotoxicity, dose response, cytotoxicity control for Shn3 inhibitor project, CellTiter-Glo, cherry-picked (AID 624134); assay type: functional, cell-based
[7] = control 3'UTR Renilla luciferase suppression, dose response, counter-screen for Shn3 inhibitor project, cell-based, Clone20-Shn3RL, cherry-picked (AID 624133); assay type: functional
[8] = molecular target: T2, DNA repair protein RAD52 homolog (Homo sapiens, UniProt P43351); assay type: functional, biochemical
T2 sequence (P43351 whole entry): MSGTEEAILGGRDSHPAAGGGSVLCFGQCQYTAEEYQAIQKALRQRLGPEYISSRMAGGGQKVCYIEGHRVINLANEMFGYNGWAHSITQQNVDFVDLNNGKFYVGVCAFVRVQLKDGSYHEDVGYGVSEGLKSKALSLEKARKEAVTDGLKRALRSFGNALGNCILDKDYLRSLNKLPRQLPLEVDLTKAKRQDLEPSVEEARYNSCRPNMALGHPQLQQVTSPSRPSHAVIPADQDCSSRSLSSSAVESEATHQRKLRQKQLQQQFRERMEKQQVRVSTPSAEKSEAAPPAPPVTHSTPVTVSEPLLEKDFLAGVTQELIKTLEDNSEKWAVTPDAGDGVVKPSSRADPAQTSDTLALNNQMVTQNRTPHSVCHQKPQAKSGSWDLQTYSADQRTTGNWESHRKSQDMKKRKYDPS

[9] = tested on: HEK293; assay: cells; conditions: Homo sapiens
[10] = tested on: HEK293; assay: cells; conditions: Homo sapiens; remark: listed apart in the source
[11] = NIH-3T3 fibroblast cytotoxicity, dose response, cytotoxicity control, cell-based, fluorescence, Alamar Blue, secondary assay (AID 2327); assay type: functional;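 also: NIH-3T3 mouse fibroblasts cultured with fluconazole at 8 µg/mL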
[12] = inhibitors of firefly luciferase expression or activity, dose response, H4 neuroglioma cells, luminescence (AID 1990); assay type: functional, cell-based
[13] = Luminescence Cell-Based Dose Response HTS to Identify Inhibitors of 5'UTR Stem-Loop Driven Prion Protein mRNA Translation in H4 Neuroglioblastoma Cells. [Related pubchem assays: 1827 (Project Summary), 1813 (Primary HTS)]; assay type: functional
[14] = inhibitors of SNCA 5'UTR-driven reporter translation, confirmation, H4 neuroglioma cells, luminescence (AID 1988); assay type: functional, cell-based
[15] = C. albicans growth with fluconazole, confirmation, fluorescence, retest (AID 2467); assay type: functional, cell-based
[16] = inhibitors of intracellular T. cruzi replication, confirmation, NIH3T3 host cells, beta-gal luminescence (AID 2044); assay type: functional, cell-based;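 also: intracellular parasites grown in NIH/3T3 mouse fibroblasts as host cells; luminescent beta-galactosidase reporter signal from transgenic T. cruzi replicating inside host cells; inhibitors lower the luminescence signal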
[17] = molecular target: T3, Serine/threonine-protein phosphatase (Candida dubliniensis (strain CD36 / CBS 7987 / NCPF 3949 / NRRLY-17841) (Yeast), UniProt B9W6M3); assay: calcineurin pathway inhibitors in yeast reporter, dose response, S. cerevisiae, CDRE-lacZ, luminescence, secondary (AID 2388); assay type: functional, cell-based;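 also: yeast reporter cells carrying a calcineurin-responsive lacZ construct stimulated with calcium chloride; luminescent beta-galactosidase reporter signal in whole cells rather than isolated phosphatase activity; potency for inhibition where a drop in reporter signal means calcineurin blockade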
T3 sequence (B9W6M3 whole entry): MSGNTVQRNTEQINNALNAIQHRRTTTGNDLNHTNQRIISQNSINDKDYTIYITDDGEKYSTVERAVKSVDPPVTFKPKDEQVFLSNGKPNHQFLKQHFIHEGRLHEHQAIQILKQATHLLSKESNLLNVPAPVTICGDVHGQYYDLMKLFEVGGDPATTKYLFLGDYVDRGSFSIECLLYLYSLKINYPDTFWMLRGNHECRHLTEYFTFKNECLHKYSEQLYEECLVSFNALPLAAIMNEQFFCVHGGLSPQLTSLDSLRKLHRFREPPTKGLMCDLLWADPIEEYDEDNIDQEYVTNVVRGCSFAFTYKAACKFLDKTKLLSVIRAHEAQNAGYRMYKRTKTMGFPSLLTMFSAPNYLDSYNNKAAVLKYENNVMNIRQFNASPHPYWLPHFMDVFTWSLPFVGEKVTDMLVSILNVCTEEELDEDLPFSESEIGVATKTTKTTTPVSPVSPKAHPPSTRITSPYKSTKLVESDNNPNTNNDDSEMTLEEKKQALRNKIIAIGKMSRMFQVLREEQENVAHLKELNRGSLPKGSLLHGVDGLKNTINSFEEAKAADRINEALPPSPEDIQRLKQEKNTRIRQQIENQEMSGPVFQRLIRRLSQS

[18] = cytotoxicity toward NIH3T3 fibroblasts, dose response, counter-screen, cell-based, ATP luminescence, mouse fibroblasts (AID 2010); assay type: functional;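 also: cells exposed to compound for about 90 hours before reading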
[19] = tested on: INS1; assay: beta cell apoptosis inhibitors, cytokine rescue, dose response, luminescence, retest (AID 449756); assay type: functional, cell-based; conditions: Rattus norvegicus;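 also: cell death triggered by IL-1 beta plus TNF-alpha plus IFN-gamma mixture; protective hits raise ATP signal compared with cytokine alone wells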
[20] = molecular target: ATP-dependent molecular chaperone HSP82 (Candida albicans (strain WO-1) (Yeast), UniProt C4YTQ8); assay: loss of DOC-induced GRE-beta-galactosidase reporter signal, dose response, Hsp90 inhibitor project, S. cerevisiae, luminescence (AID 2400); assay type: functional, cell-based;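 also: beta-galactosidase luminescence from glucocorticoid response element reporter as proxy for Hsp90 function; inhibitor potency where signal loss means Hsp90 inhibition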
Chain of ATP-dependent molecular chaperone HSP82 (C4YTQ8 whole entry, the tested form may be a part): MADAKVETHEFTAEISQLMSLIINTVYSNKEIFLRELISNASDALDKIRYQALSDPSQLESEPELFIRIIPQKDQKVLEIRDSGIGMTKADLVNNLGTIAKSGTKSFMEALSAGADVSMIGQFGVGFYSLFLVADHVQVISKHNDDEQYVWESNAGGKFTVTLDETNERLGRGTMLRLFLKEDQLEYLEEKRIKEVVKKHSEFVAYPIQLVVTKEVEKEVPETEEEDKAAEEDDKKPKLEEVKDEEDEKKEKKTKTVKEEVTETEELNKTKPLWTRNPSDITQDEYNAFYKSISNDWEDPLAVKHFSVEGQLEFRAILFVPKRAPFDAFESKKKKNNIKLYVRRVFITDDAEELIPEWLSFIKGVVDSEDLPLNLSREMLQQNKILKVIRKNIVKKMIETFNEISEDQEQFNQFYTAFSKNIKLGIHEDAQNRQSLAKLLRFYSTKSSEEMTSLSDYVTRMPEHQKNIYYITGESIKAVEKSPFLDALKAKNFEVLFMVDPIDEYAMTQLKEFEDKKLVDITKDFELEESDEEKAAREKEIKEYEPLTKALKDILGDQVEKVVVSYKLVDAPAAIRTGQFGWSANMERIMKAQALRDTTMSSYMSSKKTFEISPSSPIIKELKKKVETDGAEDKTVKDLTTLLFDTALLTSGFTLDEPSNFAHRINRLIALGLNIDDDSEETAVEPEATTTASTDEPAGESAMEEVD

[21] = ARNT/TACC3 interaction disruptors, potency, confirmation, biochemical, AlphaScreen, cherry-picked samples (AID 651703); assay type: functional, Homo sapiens;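 also: His-tagged ARNT PAS-B domain paired with GST-TACC3 E629A dimer coactivator fragment; potency of inhibitors that break up the complex and lower AlphaScreen signal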
[22] = tested on: Escherichia coli; assay: microbe, parasite or virus in culture
[23] = tested on: Escherichia coli; assay: microbe, parasite or virus in culture; remark: listed apart in the source
[24] = tested on: HEK293; assay: NOD1 signaling inhibitors, primary screen, cell-based, luminescence, uHTS (AID 1578); assay type: functional; conditions: Homo sapiens
[25] = tested on: HEK293; assay: cells; assay type: functional, cell-based; conditions: Homo sapiens
[26] = tested on: HEK293; assay: cells; assay type: functional, cell-based; conditions: Homo sapiens; remark: listed apart in the source
[27] = tested on: HEK293; assay: NOD2 signaling inhibitors in MDP-stimulated cells, cell-based, uHTS, luminescence (AID 2001); assay type: functional; conditions: Homo sapiens
[28] = growth suppression of PTEN-null colon cells, dose response, cell-based, HCT116 PTEN knockout (AID 1047); assay type: functional;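 also: HCT116 colon tumor cells with PTEN knocked out; cells exposed to compound for 60 hours before readout; potency for loss of cell viability measured by luminescence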
[29] = growth suppression of beta-catenin-knockout colon cells, dose response, cell-based, HCT116, human colon tumor (AID 1045); assay type: functional;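 also: HCT116 colon tumor cells with beta catenin knocked out; cells exposed to compound for 60 hours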
[30] = A cytotoxicity screen of small molecule inhibitors of the PhoP region in Salmonella typhi identified in the primary screen. [Related pubchem assays: 1850, 1864, 1985 ]; assay type: functional
[31] = tested on: Streptococcus sp. 'group A'; assay: growth inhibition of control SK(-) GAS strain, dose response, counter-screen for streptokinase expression inhibitor project, luminescence, kanamycin, BacTiterGlo, confirmation (AID 1900); assay type: functional, organism-based
[32] = molecular target: T4, Streptokinase A (Streptococcus pyogenes serotype M1, UniProt P10520); assay: S. pyogenes streptokinase expression inhibitors, potency, dose response, plasminogen activation absorbance, OD405 (AID 1914); assay type: functional, Streptococcus pyogenes M1 GAS;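 also: secreted streptokinase activity via plasminogen activation per viability signal from cell pellet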
T4 sequence (P10520 whole entry): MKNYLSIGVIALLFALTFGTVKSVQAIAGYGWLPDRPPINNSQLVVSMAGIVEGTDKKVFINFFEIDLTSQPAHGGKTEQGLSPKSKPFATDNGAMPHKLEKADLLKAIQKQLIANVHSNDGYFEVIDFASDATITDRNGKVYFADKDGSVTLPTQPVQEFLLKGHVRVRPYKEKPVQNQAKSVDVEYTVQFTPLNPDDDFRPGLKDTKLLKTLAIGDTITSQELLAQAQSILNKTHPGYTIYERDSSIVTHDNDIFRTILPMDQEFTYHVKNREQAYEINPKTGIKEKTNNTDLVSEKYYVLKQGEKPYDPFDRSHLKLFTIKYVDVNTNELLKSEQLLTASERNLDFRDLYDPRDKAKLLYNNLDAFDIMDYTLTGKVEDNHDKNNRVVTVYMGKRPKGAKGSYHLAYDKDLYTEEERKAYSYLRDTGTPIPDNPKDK

[33] = tested on: Streptococcus; assay: Group A Streptococcus viability loss, dose response, counter-screen for streptokinase expression inhibitor project, luminescence, BacTiterGlo (AID 1915); assay type: functional, organism-based;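 also: potency for reduction of bacterial viability or growth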

Cc1ccc(CNC(=O)c2ccccc2NS(=O)(=O)c2ccc(Cl)nc2)cc1
IC50 [1]: 7.31 µM (active) | IC50 [2]: 4.22 µM (active)

COC(=O)C(Cc1ccccc1)NCC(=O)Nc1cccc(Cl)c1C (stereo not given)
IC50 [3]: 1.57 µM (active)

CCc1nnc(NC(=O)CCc2nc(C3=CCN(C)CC3)no2)s1
IC50 [4]: 3.81 µM (active)

COc1ccc2cc(C(c3nnnn3CCc3ccccc3)N3CCCC(C)C3)c(=O)[nH]c2c1 (stereo not given)
IC50 [3]: 2.7 µM (active)

CN(C)CCNC(=O)c1cccc2nc3cccc(F)c3nc12
AC50 [5]: 13.7 µM (active) | AC50 [6]: 4.69 µM (active) | AC50 [7]: 23.8 µM (active) | AC50 [8]: 4.63 µM (active) | EC50 [9]: > 59.6 µM (inactive) | EC50 [10]: > 59.6 µM (inactive)

Cc1ccc(C(=O)O/N=C/c2c(N3CCOCC3)n(C)c3ccccc23)cc1
EC50 [11]: > 160 µM (inconclusive) | EC50 [12]: > 120 µM (not active) | EC50 [13]: 10.9 µM (active) | EC50 [14]: > 120 µM (not active) | EC50 [15]: 0.419 µM (active) | EC50 [16]: 0.799 µM (active) | EC50 [17]: > 180 µM (inactive) | EC50 [18]: 3.44 µM (active) | AC50 [19]: 0.915 µM (active) | EC50 [20]: > 160 µM (inactive)

CSc1ccccc1OCc1cc(C(=O)N2CCNC(=O)C2)no1
IC50 [4]: 6.88 µM (active)

C[C@@H]1CCCCO[C@@H](CN(C)C(=O)Nc2ccc3c(c2)OCO3)[C@@H](C)CN([C@@H](C)CO)C(=O)c2cc(N(C)C)ccc2O1
AC50 [21]: 114 µM (active)

Cc1cccc(OCC(=O)N2CCOCC2)c1
AC50 [22]: 37.1 µM (active) | AC50 [23]: 103 µM (active)

Cc1cc(C)cc(NC(=O)/C=C/c2ccc([N+](=O)[O-])s2)c1
EC50 [24]: > 20 µM (inactive) | IC50 [25]: 9.79 µM (active) | IC50 [26]: > 20 µM (inactive) | IC50 [27]: > 20 µM (inactive) | EC50 [28]: 3.75 µM (active) | EC50 [29]: 6.03 µM (active) | EC50 [9]: > 59.7 µM (inactive) | EC50 [10]: > 59.7 µM (inactive)

O=C(c1ccccc1F)N1C(=O)c2cccc3cccc1c23
AC50 [22]: 38.6 µM (active)

NS(=O)(=O)c1ccc(CNc2ccc3ccccc3n2)cc1
EC50 [30]: > 50 µM (active) | IC50 [1]: 3.76 µM (active) | IC50 [2]: 3.57 µM (active)

CC(CC(=O)Nc1ncc([N+](=O)[O-])s1)c1ccccc1 (stereo not given)
EC50 [11]: > 150 µM (inactive) | EC50 [15]: 0.76 µM (active) | EC50 [17]: > 180 µM (inactive) | EC50 [20]: > 160 µM (inactive)

Cc1cc(-c2c(C)[nH]n(-c3ccc(Cl)cc3)c2=O)n(-c2ccc(Cl)cc2)n1
EC50 [31]: 17.8 µM (active) | EC50 [32]: > 150 µM (not active) | EC50 [33]: 62.8 µM (active) | AC50 [22]: 46.2 µM (active)
